Assay results reported in patent publication US20080096967A1, “Formulations for Injection of Catecholic Butanes, Including Ndga Compounds, Into Animals” (priority 2005, published 2008).

Assay: Solubility and room temperature stability of M4N in modified cyclodextrin / PEG formulations (visual inspection)
Format: physicochemical
Procedure: A 100 mL solution of 40% HP-β-CD for use as a solubilizing agent and/or excipient was made as follows: 65 mL of WFI were placed in a glass beaker containing a stir bar. The beaker was placed on a magnetic plate, and the stir bar was set to stir at medium speed. About forty (40) grams of HP-β-CD were added slowly to the stirring WFI, using a spatula to direct the HP-β-CD to the center of the beaker so as to prevent HP-β-CD crystals from sticking to the beaker wall. The HP-β-CD solution was stirred for about 24 hr or until the HP-β-CD was dissolved completely upon visual inspection. The resulting solution measured about 93 mL. About 7 mL of WFI was added to this resulting solution to obtain 100 mL, producing a final solution of about 40% HP-β-CD. The final solution was stirred for about 1 hr, stored at room temperature, and was protected from light. This method of making the modified cyclodextrin solution may be scaled up or down to obtain the desired volume or concentration. Other concentrations or other modified cyclodextrin solutions may be similarly made, for example, by substituting HP-β-CD with other modified cyclodextrins, adjusted for the appropriate concentrations in the process described above.
A 10 mL solution of M4N at a concentration of about 10 mg/mL in 40% HP-β-CD was made as follows. About 10 mL of the 40% HP-β-CD solution were added to a glass beaker containing a stir bar. The beaker was placed on a magnetic plate and the stir bar was set to stir at medium speed. About […] of M4N were slowly added to the 40% HP-β-CD in the center of the beaker with the aid of a spatula. The M4N/40% HP-β-CD mixture was stirred for 2 hr or until all M4N was uniformly suspended without any clumps being present. The M4N/40% HP-β-CD mixture was optionally heated at 80° C. for about 30 min. (or longer if a larger volume of solution was desired, for example, 1 hr at 80° C. for 100 mL of the M4N/HP-β-CD mixture), or longer as needed to ensure complete dissolution of M4N. […] The final M4N/40% HP-β-CD solution was stored at room temperature and was kept protected from light. This process may be scaled up or down to obtain the requisite volume or concentration of M4N. Formulations containing M4N in other cyclodextrin solutions may be similarly made, such as, for example, by substituting HP-β-CD in the process described above with other cyclodextrins.
A 100 mL solution of M4N at a concentration of about 25 mg/mL in PEG 300 was made as follows. About 100 mL of PEG 300 were added to a glass beaker containing a stir bar. The beaker was placed on a magnetic plate and the stir bar was set to stir at medium speed. About 2.5 g of M4N were slowly added to the PEG 300 in the center of the beaker with the aid of a spatula to prevent M4N from sticking to the beaker wall. The M4N/PEG 300 mixture was stirred for 24 hr or until all M4N had dissolved or was uniformly suspended without any clumps being present. The M4N/PEG 300 mixture was optionally heated at about 60° C. for about 30 min. (or longer if a larger volume of solution was desired, for example, 1 hr at 60° C. for 500 mL of the M4N/PEG 300 mixture), or longer as needed to ensure complete dissolution of M4N. […] If crystals formed, the M4N/PEG 300 solution could be heated again at 60° C. for about 1 hr, with stirring, on a hot magnetic plate until all M4N was dissolved back in solution. The final M4N/PEG 300 solution was stored at room temperature and was kept protected from light. This process may be scaled up or down to obtain the requisite volume or concentration of M4N. Formulations containing M4N in other PEGs may be similarly made, such as, for example, by substituting PEG 300 in the process described above with PEG 400 or PEG 400 monolaurate. […]

COc1ccc(C[C@@H](C)[C@@H](C)Cc2ccc(OC)c(OC)c2)cc1OC [Formulation M4N, meso-1,4-bis(3,4-dimethoxyphenyl)-2,3-dimethylbutane]
Y at 60°: Dissolution After Heating at X ° C. (5% HP-β-CD, 12.5% PEG 300 (v/v), M4N 3.13 mg/mL, 60°) | Dissolution After Heating at X ° C. (6.7% HP-β-CD, 16.7% PEG 300 (v/v), M4N 4.17 mg/mL, 60°) | Dissolution After Heating at X ° C. (10% HP-β-CD, 25% PEG 300 (v/v), M4N 6.25 mg/mL, 60°) | Dissolution After Heating at X ° C. (10% HP-β-CD, 77% PEG 300 (v/v), M4N 19.3 mg/mL, 60°) | Dissolution After Heating at X ° C. (12.5% HP-β-CD, 50% PEG 300 (v/v), M4N 12.5 mg/mL, 60°) | Dissolution After Heating at X ° C. (13% HP-β-CD, 67% PEG 300 (v/v), M4N 16.7 mg/mL, 60°) | Dissolution After Heating at X ° C. (15% HP-β-CD, 50% PEG 300 (v/v), M4N 12.5 mg/mL, 60°) | Dissolution After Heating at X ° C. (20% HP-β-CD, 50% PEG 300 (v/v), M4N 12.5 mg/mL, 60°) | Dissolution After Heating at X ° C. (23% HP-β-CD, 43 PEG 300 (v/v), M4N 12.9 mg/mL, 60°) | Dissolution After Heating at X ° C. (27% HP-β-CD, 33% PEG 300 (v/v), M4N 13.3 mg/mL, 60°) | Dissolution After Heating at X ° C. (30% HP-β-CD, 25% PEG 400 (v/v), M4N 12.5 mg/mL, 60°) | Dissolution After Heating at X ° C. (32% HP-β-CD, 20% PEG 400 (v/v), M4N 10 mg/mL, 60°)
<7 days: Stability at Room Temperature (5% HP-β-CD, 12.5% PEG 300 (v/v), M4N 3.13 mg/mL) | Stability at Room Temperature (15% HP-β-CD, 50% PEG 300 (v/v), M4N 12.5 mg/mL)
<1 days: Stability at Room Temperature (12.5% HP-β-CD, 50% PEG 300 (v/v), M4N 12.5 mg/mL)
N at 90°: Dissolution After Heating at X ° C. (1.50% β-CD, M4N 1 mg/mL, 90°) | Dissolution After Heating at X ° C. (1.50% β-CD, M4N 10 mg/mL, 90°) | Dissolution After Heating at X ° C. (5% γ-CD, M4N 1 mg/mL, 90°) | Dissolution After Heating at X ° C. (15% α-CD, M4N 10 mg/mL, 90°) | Dissolution After Heating at X ° C. (15% α-CD, M4N 50 mg/mL, 90°) | Dissolution After Heating at X ° C. (15% α-CD, M4N 100 mg/mL, 90°) | Dissolution After Heating at X ° C. (20% HP-β-CD, M4N 10 mg/mL, 90°) | Dissolution After Heating at X ° C. (30% HP-β-CD, M4N 20 mg/mL, 90°) | Dissolution After Heating at X ° C. (30% HP-β-CD, M4N 50 mg/mL, 90°) | Dissolution After Heating at X ° C. (30% HP-β-CD, M4N 100 mg/mL, 90°) | Dissolution After Heating at X ° C. (50% HP-β-CD, M4N 20 mg/mL, 90°) | Dissolution After Heating at X ° C. (50% HP-β-CD, M4N 50 mg/mL, 90°) | Dissolution After Heating at X ° C. (50% HP-β-CD, M4N 100 mg/mL, 90°)
<3 days: Stability at Room Temperature (30% HP-β-CD, M4N 10 mg/mL) | Stability at Room Temperature (50% HP-β-CD, 1.25% PVP (w/v), M4N 1 mg/mL)
Y at 90°: Dissolution After Heating at X ° C. (20% HP-β-CD, M4N 1 mg/mL, 90°) | Dissolution After Heating at X ° C. (30% HP-β-CD, M4N 1 mg/mL, 90°) | Dissolution After Heating at X ° C. (30% HP-β-CD, M4N 10 mg/mL, 90°) | Dissolution After Heating at X ° C. (50% HP-β-CD in saline, M4N 10 mg/mL, 90°) | Dissolution After Heating at X ° C. (50% HP-β-CD, 1.25% PVP (w/v), M4N 1 mg/mL, 90°) | Dissolution After Heating at X ° C. (50% HP-β-CD, M4N 1 mg/mL, 90°) | Dissolution After Heating at X ° C. (50% HP-β-CD, M4N 10 mg/mL, 90°)
>7 days: Stability at Room Temperature (6.7% HP-β-CD, 16.7% PEG 300 (v/v), M4N 4.17 mg/mL) | Stability at Room Temperature (10% HP-β-CD, 25% PEG 300 (v/v), M4N 6.25 mg/mL) | Stability at Room Temperature (20% HP-β-CD, 50% PEG 300 (v/v), M4N 12.5 mg/mL) | Stability at Room Temperature (20% HP-β-CD, M4N 1 mg/mL) | Stability at Room Temperature (23% HP-β-CD, 43 PEG 300 (v/v), M4N 12.9 mg/mL) | Stability at Room Temperature (27% HP-β-CD, 33% PEG 300 (v/v), M4N 13.3 mg/mL) | Stability at Room Temperature (27% HP-β-CD, 33% PEG 400 (v/v), M4N 13.3 mg/mL) | Stability at Room Temperature (30% HP-β-CD, 25% PEG 400 (v/v), M4N 12.5 mg/mL) | Stability at Room Temperature (30% HP-β-CD, M4N 1 mg/mL) | Stability at Room Temperature (32% HP-β-CD, 20% PEG 400 (v/v), M4N 10 mg/mL) | Stability at Room Temperature (40% HP-β-CD, M4N 1 mg/mL) | Stability at Room Temperature (40% HP-β-CD, M4N 10 mg/mL) | Stability at Room Temperature (50% HP-β-CD in saline, M4N 10 mg/mL) | Stability at Room Temperature (50% HP-β-CD, M4N 1 mg/mL) | Stability at Room Temperature (50% HP-β-CD, M4N 10 mg/mL)
N at 80°: Dissolution After Heating at X ° C. (40% HP-β-CD, 2.5% PG (v/v), M4N 1 mg/mL, 80°) | Dissolution After Heating at X ° C. (40% HP-β-CD, 2.5% PG (v/v), M4N 10 mg/mL, 80°) | Dissolution After Heating at X ° C. (40% HP-β-CD, M4N 12 mg/mL, 80°) | Dissolution After Heating at X ° C. (40% HP-β-CD, M4N 14 mg/mL, 80°) | Dissolution After Heating at X ° C. (40% HP-β-CD, M4N 16 mg/mL, 80°) | Dissolution After Heating at X ° C. (40% HP-β-CD, M4N 20 mg/mL, 80°) | Dissolution After Heating at X ° C. (40% HP-β-CD, M4N 50 mg/mL, 80°) | Dissolution After Heating at X ° C. (40% HP-β-CD, M4N 100 mg/mL, 80°)
greater than 7 days: remained in solution after cooling (M4N 1 mg/mL and 10 mg/mL in 40% HP-β-CD)
Y at 80°: Dissolution After Heating at X ° C. (40% HP-β-CD, M4N 1 mg/mL, 80°) | Dissolution After Heating at X ° C. (40% HP-β-CD, M4N 10 mg/mL, 80°)
N: Dissolution After Heating at X ° C. (40% HP-β-CD, 1% PVP (w/v), M4N 1 mg/mL) | Dissolution After Heating at X ° C. (40% HP-β-CD, 1% PVP (w/v), M4N 10 mg/mL) | Dissolution After Heating at X ° C. (50% HP-β-CD, 1.25% PVP (w/v), M4N 10 mg/mL) | Dissolution After Heating at X ° C. (50% HP-β-CD, 1.25% PVP (w/v), M4N 50 mg/mL)
